Assay results as given in ChEMBL document CHEMBL3885861, “Open TG-GATES”.

Organism: Rattus norvegicus
Assay: Open TG-GATES - Regimen: Daily Repeat
Type: toxicity, organism-based, Sprague-Dawley
Design: regimen Daily Repeat, gender Male, age 6 weeks
Conditions: in vivo, po, route gavage; for APTT / Bas / Eos / Fbg / Ht / Lym / MCHC / MCV / Mono / Neu / PT / Plat / RBC / Ret: tissue Blood; for KIDNEY_L / KIDNEY_R / KIDNEY_TOTAL: tissue Kidney; for AST / CRE / GLC / IP / K / LDH / RALB / TBIL / TC / TP / gamma-GTP: tissue Plasma
[1] = 30 mg/kg, 72 h, dose level Middle, time 3 day
[2] = 30 mg/kg, […], dose level Middle, time 7 day
[3] = 30 mg/kg, […], dose level Middle, time 14 day
[4] = 30 mg/kg, […], dose level Middle, time 28 day
[5] = 100 mg/kg, 72 h, dose level High, time 3 day
[6] = 100 mg/kg, […], dose level High, time 7 day
[7] = 100 mg/kg, […], dose level High, time 14 day
[8] = 100 mg/kg, […], dose level High, time 28 day

## CN(C)CCCN1c2ccccc2CCc2ccccc21 [IMIPRAMINE]
[1]
  TERMINAL_BW: 214.6 g
  APTT: 16.4 s
  Bas: 0%
  Eos: 1.4%
  Fbg: 303.4 mg/dL
  Ht: 44.3%
  Lym: 83.8%
  MCHC: 33%
  MCV: 61.8 fL
  Mono: 2%
  Neu: 12%
  PT: 16.9 s
  Plat: 115.8 x10_4/uL
  RBC: 717.2 x10_4/ul
  Ret: 3.2%
  KIDNEY_L: 0.9 g
  KIDNEY_R: 0.9 g
  KIDNEY_TOTAL: 1.8 g
  AST: 58.8 IU/L
  CRE: 0.2 mg/dL
  GLC: 182.4 mg/dL
  IP: 7.6 mg/dL
  K: 4.3 meq/L
  LDH: 90.4 IU/L
  RALB: 2.6 g/dL
  TBIL: 0.058 mg/dL
  TC: 77 mg/dL
  TP: 5.9 g/dL
  gamma-GTP: 1 IU/L
[2]
  TERMINAL_BW: 244.7 g
  APTT: 16.2 s
  Bas: 0%
  Eos: 1%
  Fbg: 323.8 mg/dL
  Ht: 41.6%
  Lym: 78.6%
  MCHC: 33%
  MCV: 61.3 fL
  Mono: 2%
  PT: 16.1 s
  Plat: 118.6 x10_4/uL
  RBC: 678.2 x10_4/ul
  Ret: 3.9%
  KIDNEY_L: 1.1 g
  KIDNEY_R: 1.1 g
  KIDNEY_TOTAL: 2.1 g
  AST: 59 IU/L
  CRE: 0.2 mg/dL
  GLC: 173 mg/dL
  IP: 7 mg/dL
  K: 4.2 meq/L
  LDH: 88.8 IU/L
  RALB: 2.5 g/dL
  TBIL: 0.044 mg/dL
  TC: 85 mg/dL
  TP: 5.8 g/dL
  gamma-GTP: 0.4 IU/L
[3]
  TERMINAL_BW: 294.7 g
  APTT: 16.3 s
  Bas: 0%
  Eos: 1.2%
  Fbg: 303.2 mg/dL
  Ht: 42.5%
  Lym: 75.8%
  MCHC: 33.4%
  MCV: 59.7 fL
  Mono: 2.6%
  PT: 16.3 s
  Plat: 107.7 x10_4/uL
  RBC: 712.4 x10_4/ul
  Ret: 4.3%
  KIDNEY_L: 1.2 g
  KIDNEY_R: 1.2 g
  KIDNEY_TOTAL: 2.4 g
  AST: 53.6 IU/L
  CRE: 0.2 mg/dL
  GLC: 170.8 mg/dL
  IP: 6.9 mg/dL
  K: 4.3 meq/L
  LDH: 100.6 IU/L
  RALB: 2.6 g/dL
  TBIL: 0.046 mg/dL
  TC: 88.2 mg/dL
  TP: 5.9 g/dL
  gamma-GTP: 0.6 IU/L
[4]
  TERMINAL_BW: 362.7 g
  APTT: 16.2 s
  Bas: 0.2%
  Eos: 1.2%
  Fbg: 305.2 mg/dL
  Ht: 45.7%
  Lym: 80.4%
  MCHC: 33.7%
  MCV: 57.1 fL
  Mono: 2%
  PT: 16.3 s
  Plat: 101.3 x10_4/uL
  RBC: 801 x10_4/ul
  Ret: 2.4%
  KIDNEY_L: 1.3 g
  KIDNEY_R: 1.3 g
  KIDNEY_TOTAL: 2.7 g
  AST: 53.8 IU/L
  CRE: 0.2 mg/dL
  GLC: 164.6 mg/dL
  IP: 7 mg/dL
  K: 4 meq/L
  LDH: 45.4 IU/L
  RALB: 2.7 g/dL
  TBIL: 0.056 mg/dL
  TC: 73.8 mg/dL
  TP: 6.3 g/dL
  gamma-GTP: 1 IU/L
[5]
  TERMINAL_BW: 197.8 g
  APTT: 15.5 s
  Bas: 0%
  Eos: 1%
  Fbg: 334.4 mg/dL
  Ht: 45.9%
  Lym: 74.8%
  MCHC: 33%
  MCV: 62.6 fL
  Mono: 2.4%
  PT: 16.5 s
  Plat: 126.7 x10_4/uL
  RBC: 733.8 x10_4/ul
  Ret: 2.8%
  KIDNEY_L: 0.9 g
  KIDNEY_R: 0.9 g
  KIDNEY_TOTAL: 1.8 g
  AST: 57.2 IU/L
  CRE: 0.2 mg/dL
  GLC: 163.8 mg/dL
  IP: 7.8 mg/dL
  K: 4.3 meq/L
  LDH: 57.8 IU/L
  RALB: 2.5 g/dL
  TBIL: 0.05 mg/dL
  TC: 93.8 mg/dL
  TP: 5.7 g/dL
  gamma-GTP: 0.8 IU/L
[6]
  TERMINAL_BW: 201.5 g
  APTT: 15.9 s
  Bas: 0%
  Eos: 1%
  Fbg: 347.8 mg/dL
  Ht: 45.6%
  Lym: 82.8%
  MCHC: 33.3%
  MCV: 59.9 fL
  Mono: 1.8%
  PT: 16.9 s
  Plat: 109.5 x10_4/uL
  RBC: 762.2 x10_4/ul
  Ret: 1.4%
  KIDNEY_L: 1 g
  KIDNEY_R: 0.9 g
  KIDNEY_TOTAL: 1.9 g
  AST: 51.6 IU/L
  CRE: 0.2 mg/dL
  GLC: 162.6 mg/dL
  IP: 7.2 mg/dL
  K: 4.1 meq/L
  LDH: 79 IU/L
  RALB: 2.5 g/dL
  TBIL: 0.048 mg/dL
  TC: 102.6 mg/dL
  TP: 5.6 g/dL
  gamma-GTP: 0.2 IU/L
[7]
  TERMINAL_BW: 221.4 g
  APTT: 18 s
  Bas: 0.4%
  Eos: 1.4%
  Fbg: 329.4 mg/dL
  Ht: 46.8%
  Lym: 69.8%
  MCHC: 33.5%
  MCV: 60.2 fL
  Mono: 4.4%
  PT: 17.3 s
  Plat: 98.5 x10_4/uL
  RBC: 777.6 x10_4/ul
  Ret: 1.7%
  KIDNEY_L: 1 g
  KIDNEY_R: 0.9 g
  KIDNEY_TOTAL: 1.9 g
  AST: 75.8 IU/L
  CRE: 0.2 mg/dL
  GLC: 155.8 mg/dL
  IP: 6.9 mg/dL
  K: 4.2 meq/L
  LDH: 73.6 IU/L
  RALB: 2.6 g/dL
  TBIL: 0.04 mg/dL
  TC: 74.6 mg/dL
  TP: 5.8 g/dL
  gamma-GTP: 1.2 IU/L
[8]
  TERMINAL_BW: 293.5 g
  APTT: 16.4 s
  Bas: 0.2%
  Eos: 1.2%
  Fbg: 377.5 mg/dL
  Ht: 46.7%
  Lym: 70%
  MCHC: 33.8%
  MCV: 55.4 fL
  Mono: 3%
  Neu: 25.2%
  PT: 16 s
  Plat: 93.4 x10_4/uL
  RBC: 842.5 x10_4/ul
  Ret: 2.6%
  KIDNEY_L: 1.2 g
  KIDNEY_R: 1.2 g
  KIDNEY_TOTAL: 2.4 g
  AST: 56 IU/L
  CRE: 0.2 mg/dL
  GLC: 148.5 mg/dL
  IP: 7 mg/dL
  K: 4.3 meq/L
  LDH: 40.5 IU/L
  RALB: 2.7 g/dL
  TBIL: 0.0425 mg/dL
  TC: 91.8 mg/dL
  TP: 6.2 g/dL
  gamma-GTP: 0.5 IU/L
